Data: patent publication US20050079176A1, “Treating stress response with chemokine receptor ccr5 modulators” (priority 2002, published 2005)
Where “and” joins values, the source holds several entries; their conditions need not be identical. Equal entries are not always repeated. Entries after “also recorded” stand apart in the source; their conditions may differ.

Legend:
[1] = test system: cynomolgus cardiac allografts; assay: Cardiac allograft survival / graft function after heterotopic transplantation; assay type: in vivo, Macaca fascicularis
From the text: Cynomolgus macaques (Macaca fascicularis), weighing 2.4-4.7 kg, and ranging in estimated age from 2.2-5.5 years were selected as organ recipients. Donors were matched to recipients by AB blood type compatibility as tested by New York University, Nelson Institute of Environmental Medicine, Tuxedo, N.Y. MHC class II mismatch was assured by a stimulation index (SI)>3 in paired animals in unidirectional mixed lymphocyte reaction (MLR) using potential donor lymphocytes as stimulators and potential recipient peripheral blood mononuclear cells (PBMCs) as responders. Animals were matched by assigning pairs with maximal MLR response within groups of blood type compatible animals.
Donor operation: After systemic heparinization (70 units/kg, Elkins-Sinn Inc., Cherry Hill, N.J.) and collection of donor blood during equivolemic saline infusion, diastolic arrest of the donor heart was induced with University of Wisconsin organ preservation solution (15-20 cc/kg, 4° C.) via the aortic root. The heart was explanted and prepared: The mitral valve was rendered incompetent surgically, to prevent left ventricular distention, and an atrial septal defect was created by excising the fossa ovalis, to allow blood entering the left heart through the thebesian circulation to transit to and be ejected from the right heart.
Recipient operation: All recipient animals underwent traditional non-working intraabdominal cardiac allograft transplantation using a single clamp technique, wherein the donor aorta was anastomosed end-to-side to the infrarenal abdominal aorta, and the donor pulmonary artery was anastomosed to the adjacent vena cava. Heparin (70 Units/kg) (a Unit is equivalent to 3 mg/kg of body weight) was administered to the recipient prior to clamp placement. A silicon central venous catheter was introduced via the internal jugular vein, and tunneled to exit between the scapulae. Catheters were attached to swivel connection systems, and animals placed in protective cloth jackets incorporating a swiveling system which protected venous access.
Graft function and body temperature were assessed twice daily by monitoring with a fully implantable telemetry device (Data Sciences International, St. Paul, Minn.) (electrocardiogram (EKG), right ventricular pressure and animal body temperature) implanted at the time of transplantation. Confirmatory abdominal ultrasounds were performed at the time of protocol biopsies and whenever an examiner appreciated decreased contractility, if EKG voltage or rate (<120 beats per minute) was decreased, or if developed pulse pressure (delta P) in the graft was decreased. Cardiac biopsies were performed by protocol on postoperative days 4, 7, 14, through a laparotomy incision using a core biopsy needle. Graft failure was defined as loss of palpable graft activity, with ultrasound confirmation of weak or absent myocardial contractility. Failed grafts were explanted promptly and examined histologically.
Three animals received Compound A as monotherapy at a dose of 5 mg/kg, two animals received Compound A as monotherapy at a dose of 10 mg/kg, and three animals received an equivalent volume of saline (control). Compound A was administered intravenously twice daily at 12 hour intervals (i.e., b.i.d.) starting at transplant. […] The dose on the first day was 12.5 mg/kg, then 10 mg/kg daily for 7 days, then 5 mg/kg daily for 7 days, then 2.5 mg/kg/day until graft rejection or animal sacrifice.

IL6 [2] = assay: Cytometric Bead Array Human Inflammation Kit, serum/plasma on day of explant: IL6; assay type: in vivo, cynomologous monkeys
Description: (§1) Serum and plasma samples taken from the cynomologous monkeys in Example 1 on the day of explant (i.e., the day of graft rejection) were analyzed using the BD Pharmingen Cytometric Bead Array Human Inflammation Kit, which can measure IL1-β, IL6, IL8, IL10, IL12p70 and TNF-α. Reagents to detect IL6, IL8 and TNF-α have been shown by the manufacturer to cross react with rhesus and cynomologus monkey proteins. At the time of the assay, reagents to measure IL1-beta and IL12p70 had not yet been tested for cross reactivity to non-human primate proteins.
Samples were assayed in the manner described in the manufacturer's protocol booklet; i.e., “Human Inflammation Kit—Instruction Manual” (BD Biosciences, Cat. No. 551811, pdf copy available at www.bdbiosciences.com). Briefly, assay standards were reconstituted with assay diluent and diluted in two fold steps by serial dilution. Capture beads were mixed and distributed into an appropriate number of 12×75 mm polystyrene tubes. Standards or samples were added to the tubes and incubated in the dark at room temperature for 1.5 hours. The incubated tubes were washed once and phycoerythrin (PE)-labeled detection antibody reagent was added. Samples were again incubated in the dark at room temperature for 1.5 hours. After one final wash, samples were resuspended in 300 uL of wash buffer. Flow cytometer data was acquired using a Becton Dickinson FACSCalibur and analyzed with Becton Dickinson CBA Software.

IL8 = assay: Cytometric Bead Array Human Inflammation Kit, serum/plasma on day of explant: IL8; assay type: in vivo, cynomologous monkeys; conditions: Compound A-treated monkeys
Description: as §1
Samples were assayed in the manner described in the manufacturer's protocol booklet; i.e., “Human Inflammation Kit—Instruction Manual” (BD Biosciences, Cat. No. 551811, pdf copy available at www.bdbiosciences.com). Briefly, assay standards were reconstituted with assay diluent and diluted in two fold steps by serial dilution. Capture beads were mixed and distributed into an appropriate number of 12×75 mm polystyrene tubes. Standards or samples were added to the tubes and incubated in the dark at room temperature for 1.5 hours. The incubated tubes were washed once and phycoerythrin (PE)-labeled detection antibody reagent was added. Samples were again incubated in the dark at room temperature for 1.5 hours. […] Flow cytometer data was acquired using a Becton Dickinson FACSCalibur and analyzed with Becton Dickinson CBA Software.

CCR5+ cells = assay: Double-label immunofluorescence microscopy of leukocytes infiltrating rejecting allografts; assay type: in vivo, Macaca fascicularis; conditions: in association with CCR5 blockade
From the text: Double-label immunofluorescence microscopy using antibodies specific for CD3, CD68, CD11b, CCR5 and CXCR3 was used to characterize leukocyte populations infiltrating acutely rejecting (days 4, 6) cynomolgus cardiac allografts. CCR5 and CXCR3 are prominent on monocytes/macrophages and to a lesser extent on T-cells in rejecting cynomolgus heart allografts. Co-localization of CCR5 and CXCR3 to the same cells was common, particularly on the […] monocyte/macrophage population. Infiltration of CCR5+ cells was inhibited in association with CCR5 blockade. Graft failure was identified by a decrease in heart rate and ST elevation (associated with ischemia) on EKG and a decrease in arterial line pressure. […] (Note: n=7 refers to the data for the 3 control (i.e., saline) monkeys in this experiment plus data for 4 animals from a historic database that were scored as controls in which cyno cardiac allografts were rejected in the absense of immunosupression in a manner identical to the three controls in this experiment.)

CCR5 receptor = target: T1, CCR5 receptor (Macaca fascicularis, UniProt P61814); assay: Receptor occupancy corresponding to plasma concentration; assay type: binding; conditions: at a concentration of 100 nM
T1 construct: endogenous in cells; host or cells: cynomolgus monkey (in vivo, CCR5-bearing leukocytes)

[3] = test system: IL1-beta mRNA expression in RANTES-stimulated macrophages; assay: Cytokine mRNA expression (TaqMan) in RANTES-stimulated human macrophages: IL1-beta; assay type: cell-based; conditions: RANTES 250 nM
Description: (§2) Human monocytes were isolated white blood cells concentrated from units of blood (i.e., leukopaks) from normal donors. To enhance CCR5 expression, the monocytes were cultured under suspension conditions in Teflon jars for 2 days in media supplemented with 12% fetal bovine serum. 10^6 cells were seeded and allowed to attach for over 2 hours in 6-well tissue culture plates. Cells were pre-incubated with either dimethylsulfoxide (DMSO; vehicle control) or Compound A at various concentrations for 1 hour, after which RANTES (the CCR5 agonist/ligand; Pepro Tech Inc.) was added at 250 nM, or, alternatively, media was added as a control. The cells were incubated at 37° C. for 24 hours, after which the media were removed and centrifuged to precipitate the non-adherent cells. Both the adhered and non-adhered cells were lysed and subjected to mRNA isolation, and the mRNA isolate was analyzed for cytokine expression by quantitative real time PCR (TaqMan). The relative mRNA-fold induction of cytokine gene expression in the RANTES-stimulated macrophages was calculated relative to day 2 non-stimulated, non-treated controls (i.e. fold induction=1 on day 2 for controls), as well as fold mRNA induction relative to vehicle (DMSO) (0 nM) control RANTES stimulated cells.

[4] = test system: IL6 mRNA expression in RANTES-stimulated macrophages; assay: Cytokine mRNA expression (TaqMan) in RANTES-stimulated human macrophages: IL6; assay type: cell-based; conditions: RANTES 250 nM
Description: as §2

[5] = Plasma trough concentrations by LC-MS/MS; assay type: in vivo, Macaca fascicularis; conditions: cynomolgus plasma, Compound A i.v. b.i.d.
[6] = test system: Cynomolgus macaques (Macaca fascicularis); assay: Fever suppression after cardiac allotransplantation (telemetry body temperature, behaviour); assay type: in vivo; conditions: for monkeys that did not develop a fever (temperature greater than 38.5° C.): while recovering from transplantation, seven monkeys treated with CCR5 antagonist (alone or with cyclosporin)
IL6 [7] = assay: Serum IL6 by DuoSet ELISA pre and post heterotopic heart transplant; assay type: in vivo, cynomolgus monkeys
Description: IL1β and IL6 can be measured using the DuoSet ELISA development kits from R&D Systems (Minneapolis, Minn.), following the directions of the manufacturer. Briefly, plates are coated with capture antibody [mouse anti-human IL1β (2 μg/ml) or mouse anti-human IL6 (4 μg/ml)] and detection antibodies are used at 100 ng/ml (biotinylated goat anti-human IL1β) or 200 ng/ml (biotinylated goat anti-human IL6). Standards are prepared with recombinant protein (3.9-250 pg/ml for IL1β and 4.7-300 pg/ml for IL6). Streptavidin conjugated to horseradish peroxidase and H2O2/tetramethylbenzidine are used for color development. Optical density (OD) is measured at 450 nm, with correction at 570 nm.
Serum samples were taken from the cynomolgus monkeys in Example 1 at various time points pre- and post-transplantation. The samples were diluted 1:2, in PBS/0.1% BSA/0.05% Tween 20. (PBS=phosphate buffered saline; BSA=bovine serum albumin.) IL6 levels (pg/ml) in pre and post heterotopic heart transplant in serum from the cynomolgus monkeys treated with Compound A were determined obtained in accordance with the above-described procedure.

[8] = Homo sapiens, Macrophage, Compound A 10 nM, 24 hours, mean ± SD
[9] = Homo sapiens, Macrophage, Compound A 30 nM, 24 hours, mean ± SD
[10] = Homo sapiens, Macrophage, Compound A 300 nM, 24 hours, mean ± SD

## CCn1nc(Cc2ccccc2)cc1C1CCN(C[C@H]2C[C@H](N(C)[C@@H](C(=O)O)C(C)C)C[C@@H]2c2cccc(F)c2)CC1 [Compound A]
[1]; Compound A monotherapy 5 mg/kg i.v. b.i.d., n=3, controls 6±0.4 days (n=7), p=0.05
  Graft survival: 8.3 ± 0.6 days
[1]; M308, Compound A monotherapy at 10 mg/kg/day b.i.d.
  Explant Day (day of graft rejection): 8
[1]; M627, Compound A 10 mg/kg b.i.d., rescued day 9 with bolus steroids, combined therapy with CsA 43 days, from day 52 Compound A monotherapy
  Explant Day (day of graft rejection): 85
[1]; one animal: Compound A alone 10 mg/kg b.i.d., rescued day 9 with bolus steroids, combined therapy with CsA 43 days, CsA stopped day 52, Compound A continued
  day to which vigorous graft function persisted: 83 days and 78 days
IL6 [2]; M308, Compound A monotherapy at 10 mg/kg/day b.i.d., explant day 8
  IL6 on day of explant: 58 pg/mL
IL6 [2]; M627, Compound A 10 mg/kg b.i.d., steroid rescue day 9, combined therapy with CsA 43 days, Compound A monotherapy from day 52, explant day 85
  IL6 on day of explant: 20 pg/mL
IL6 [2]; monkeys treated with Compound A
  IL6 cytokine levels at the time of graft rejection relative to monkeys treated only with CsA: suppressed
IL8
  IL8 cytokine levels at the time of graft rejection relative to CsA-only treated monkeys: did not indicate suppression of IL8 levels
CCR5+ cells
  Infiltration of CCR5+ cells into cardiac allografts: inhibited
CCR5 receptor
  receptor occupancy at 0.1 µM: ~90%
[3]; Homo sapiens, Macrophage, Compound A 3 nM, 24 hours, mean ± SD
  inhibition at 0.003 µM: 37.6%
[3]; [8]
  inhibition at 0.01 µM: 50.1%
[3]; [9]
  inhibition at 0.03 µM: 59%
[3]; Homo sapiens, Macrophage, Compound A 100 nM, 24 hours, mean ± SD
  inhibition at 0.1 µM: 76.8%
[3]; [10]
  inhibition at 0.3 µM: 80.6%
[3]; human macrophages
  effect on IL1-β mRNA up-regulation by RANTES: diminish IL1-β and IL6 up-regulation significantly; also recorded: dose-dependent
[4]; Homo sapiens, Macrophage, Compound A 3 nM, 24 hours
  inhibition at 0.003 µM: 43%
[4]; [8]
  inhibition at 0.01 µM: 16.1%
[4]; [9]
  inhibition at 0.03 µM: 65.9%
[4]; Homo sapiens, Macrophage, Compound A 100 nM, 24 hours
  inhibition at 0.1 µM: 67.1%
[4]; [10]
  inhibition at 0.3 µM: 85.9%
[4]; human macrophages
  effect on IL6 mRNA up-regulation by RANTES: diminish IL1-β and IL6 up-regulation significantly; also recorded: dose-dependent
[5]
  trough plasma concentration (levels fell below target range at trough): < 100 nM
[6]; after cardiac allotransplantation, in contrast to the five control animals
  malaise: not to exhibit malaise
[6]; after transplant and during rejection of the graft
  symptoms of abdominal tenderness: did not exhibit any symptoms of abdominal tenderness
[6]; despite additional procedures on days 4 and 7-8
  recovery from surgery (how quickly normal activity levels resumed): recovered more quickly from surgery
[6]; first three days after allograft implantation, six of the seven animals treated with Compound A (5 or 10 mg/kg b.i.d. i.v., alone or with CsA)
  average temperature: below 37.5 °C
[6]; first three days after surgery
  average temperature difference versus control monkeys (saline, no immunosuppressive therapy): about one degree lower
  average temperature difference versus cyclosporin-only-treated animals: one half degree lower; also recorded: about 0.5 °C
[6]; monkeys with cardiac allografts, control (saline) ca. 38.5° C.
  average temperature over the first three days after surgery: circa 37.5 °C
[6]; of the seven animals treated with Compound A
  animals in which individual temperature elevations reached 38.5° C. on any occasion: 3
[6]
  monkeys that did not develop a fever (temperature greater than 38.5° C.): six of seven
[6]; listed as CCR5 antagonist
  monkeys that did not develop a fever (temperature greater than 38.5° C.): Six out of the seven
IL6 [7]; serum post-transplantation, Compound A monotherapy 10 mg/kg/day b.i.d., M308, M627
  IL6 level, Day 0 Post: 63.7 pg/mL and 106.2 pg/mL
IL6 [7]; serum pre-transplantation, animals M308, M627 later given Compound A monotherapy 10 mg/kg/day b.i.d.
  IL6 level, Day 0 Pre: 4.6 pg/mL and 3.4 pg/mL
IL6 [7]; serum, Compound A monotherapy 10 mg/kg/day b.i.d., M308
  IL6 level, Day 8: 24.3 pg/mL
